Reference: ChEMBL document CHEMBL1152560, “Substituted 2-arylbenzothiazoles as kinase inhibitors: hit-to-lead optimization” (Bioorg Med Chem, 2009)

How the values were obtained:
[1] = target: Misshapen-like kinase 1 (Homo sapiens) (UniProt Q8N4C8); assay: Residual activity of MINK1 at 10 uM by microplate scintillation counting
[2] = target: MAP kinase-activated protein kinase 3 (Homo sapiens) (UniProt Q16644); assay: Residual activity of MAPKAPK3 at 10 uM by microplate scintillation counting
[3] = target: T1, Ephrin type-A receptor 8 (Homo sapiens) (UniProt P29322); assay: Residual activity of EPHA8 at 1 uM by microplate scintillation counting
T1 sequence (whole entry): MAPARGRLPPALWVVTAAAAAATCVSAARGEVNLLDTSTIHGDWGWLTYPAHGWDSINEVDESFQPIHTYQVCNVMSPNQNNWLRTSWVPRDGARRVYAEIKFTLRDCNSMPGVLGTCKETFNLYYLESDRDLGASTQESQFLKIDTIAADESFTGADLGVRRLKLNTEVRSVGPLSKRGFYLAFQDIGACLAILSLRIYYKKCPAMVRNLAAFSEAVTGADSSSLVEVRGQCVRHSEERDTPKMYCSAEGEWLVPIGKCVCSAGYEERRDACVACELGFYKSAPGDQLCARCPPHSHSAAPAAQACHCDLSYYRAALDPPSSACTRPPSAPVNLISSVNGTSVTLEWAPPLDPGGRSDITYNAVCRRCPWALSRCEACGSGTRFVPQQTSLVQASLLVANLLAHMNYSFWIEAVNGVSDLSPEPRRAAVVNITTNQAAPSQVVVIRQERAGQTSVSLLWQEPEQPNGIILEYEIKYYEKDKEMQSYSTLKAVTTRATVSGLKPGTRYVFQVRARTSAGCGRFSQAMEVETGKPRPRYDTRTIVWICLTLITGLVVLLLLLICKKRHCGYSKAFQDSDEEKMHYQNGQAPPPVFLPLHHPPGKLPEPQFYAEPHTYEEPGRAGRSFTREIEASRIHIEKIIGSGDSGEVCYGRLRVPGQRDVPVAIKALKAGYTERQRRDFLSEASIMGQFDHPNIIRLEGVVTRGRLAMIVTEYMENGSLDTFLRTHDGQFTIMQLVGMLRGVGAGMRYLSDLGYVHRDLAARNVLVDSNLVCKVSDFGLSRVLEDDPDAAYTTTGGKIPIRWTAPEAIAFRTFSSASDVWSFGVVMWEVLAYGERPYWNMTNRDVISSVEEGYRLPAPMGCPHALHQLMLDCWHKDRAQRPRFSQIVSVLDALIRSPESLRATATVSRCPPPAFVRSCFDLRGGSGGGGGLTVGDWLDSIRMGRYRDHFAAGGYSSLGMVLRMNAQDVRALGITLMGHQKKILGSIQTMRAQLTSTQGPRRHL

[4] = target: Serine/threonine-protein kinase PLK1 (Homo sapiens) (UniProt P53350); assay: Residual activity of PLK1 at 1 uM by microplate scintillation counting
[5] = target: T2, Protein kinase C epsilon type (Homo sapiens) (UniProt Q02156); assay: Residual activity of PKCepsilon at 0.1 uM by microplate scintillation counting
T2 sequence (whole entry): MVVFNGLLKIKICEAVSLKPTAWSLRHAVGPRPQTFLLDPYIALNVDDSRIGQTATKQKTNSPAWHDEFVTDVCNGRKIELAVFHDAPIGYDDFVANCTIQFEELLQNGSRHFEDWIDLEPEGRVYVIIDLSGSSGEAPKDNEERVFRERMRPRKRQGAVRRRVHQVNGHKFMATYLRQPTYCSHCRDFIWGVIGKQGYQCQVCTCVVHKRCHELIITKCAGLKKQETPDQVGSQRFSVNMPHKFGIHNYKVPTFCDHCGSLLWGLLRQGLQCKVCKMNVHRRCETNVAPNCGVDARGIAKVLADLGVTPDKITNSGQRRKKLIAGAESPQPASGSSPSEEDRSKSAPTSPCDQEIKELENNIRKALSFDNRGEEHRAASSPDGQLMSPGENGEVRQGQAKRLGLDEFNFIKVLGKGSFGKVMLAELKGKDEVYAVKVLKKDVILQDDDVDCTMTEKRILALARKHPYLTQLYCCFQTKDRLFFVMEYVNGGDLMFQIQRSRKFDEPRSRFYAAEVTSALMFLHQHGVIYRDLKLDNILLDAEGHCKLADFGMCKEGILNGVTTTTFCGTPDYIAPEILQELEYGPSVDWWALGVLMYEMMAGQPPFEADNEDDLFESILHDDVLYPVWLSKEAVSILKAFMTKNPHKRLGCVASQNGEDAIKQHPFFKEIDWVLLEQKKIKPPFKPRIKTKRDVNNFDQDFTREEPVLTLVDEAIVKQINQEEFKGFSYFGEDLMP

[6] = target: Serine/threonine-protein kinase MARK2 (Homo sapiens) (UniProt Q7KZI7); assay: Residual activity of MARK2 at 10 uM by microplate scintillation counting
[7] = target: T3, G protein-coupled receptor kinase 3 (Homo sapiens) (UniProt P35626); assay: Residual activity of GRK3 at 0.1 uM by microplate scintillation counting
T3 sequence (whole entry): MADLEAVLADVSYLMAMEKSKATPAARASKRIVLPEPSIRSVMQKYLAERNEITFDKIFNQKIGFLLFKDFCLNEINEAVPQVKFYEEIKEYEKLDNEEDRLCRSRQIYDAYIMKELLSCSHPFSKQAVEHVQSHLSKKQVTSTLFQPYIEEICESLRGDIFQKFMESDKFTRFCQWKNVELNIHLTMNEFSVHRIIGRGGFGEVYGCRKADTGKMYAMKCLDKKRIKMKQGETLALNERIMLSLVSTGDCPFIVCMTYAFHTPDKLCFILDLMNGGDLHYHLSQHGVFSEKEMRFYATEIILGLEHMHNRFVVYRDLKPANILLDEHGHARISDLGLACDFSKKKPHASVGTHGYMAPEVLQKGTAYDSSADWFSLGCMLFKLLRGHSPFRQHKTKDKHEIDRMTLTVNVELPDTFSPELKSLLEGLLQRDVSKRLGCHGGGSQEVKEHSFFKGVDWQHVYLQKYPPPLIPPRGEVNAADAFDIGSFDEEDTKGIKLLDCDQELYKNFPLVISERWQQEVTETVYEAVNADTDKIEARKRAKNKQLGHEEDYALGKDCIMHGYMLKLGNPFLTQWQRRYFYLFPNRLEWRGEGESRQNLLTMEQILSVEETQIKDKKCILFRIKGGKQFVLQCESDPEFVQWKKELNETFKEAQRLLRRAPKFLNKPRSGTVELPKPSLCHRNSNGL

[8] = target: Mitogen-activated protein kinase 1 (Homo sapiens) (UniProt P28482); assay: Residual activity of ERK2 at 0.1 uM by microplate scintillation counting
[9] = target: Maternal embryonic leucine zipper kinase (Homo sapiens) (UniProt Q14680); assay: Residual activity of MELK at 0.1 uM by microplate scintillation counting
[10] = target: Activated CDC42 kinase 1 (Homo sapiens) (UniProt Q07912); assay: Residual activity of ACK1 at 1 uM by microplate scintillation counting
[11] = target: Receptor tyrosine-protein kinase erbB-2 (Homo sapiens, UniProt P04626); assay: Residual activity of ERBB2 at 0.1 uM by microplate scintillation counting
Sequence of Receptor tyrosine-protein kinase erbB-2 (P04626 whole entry): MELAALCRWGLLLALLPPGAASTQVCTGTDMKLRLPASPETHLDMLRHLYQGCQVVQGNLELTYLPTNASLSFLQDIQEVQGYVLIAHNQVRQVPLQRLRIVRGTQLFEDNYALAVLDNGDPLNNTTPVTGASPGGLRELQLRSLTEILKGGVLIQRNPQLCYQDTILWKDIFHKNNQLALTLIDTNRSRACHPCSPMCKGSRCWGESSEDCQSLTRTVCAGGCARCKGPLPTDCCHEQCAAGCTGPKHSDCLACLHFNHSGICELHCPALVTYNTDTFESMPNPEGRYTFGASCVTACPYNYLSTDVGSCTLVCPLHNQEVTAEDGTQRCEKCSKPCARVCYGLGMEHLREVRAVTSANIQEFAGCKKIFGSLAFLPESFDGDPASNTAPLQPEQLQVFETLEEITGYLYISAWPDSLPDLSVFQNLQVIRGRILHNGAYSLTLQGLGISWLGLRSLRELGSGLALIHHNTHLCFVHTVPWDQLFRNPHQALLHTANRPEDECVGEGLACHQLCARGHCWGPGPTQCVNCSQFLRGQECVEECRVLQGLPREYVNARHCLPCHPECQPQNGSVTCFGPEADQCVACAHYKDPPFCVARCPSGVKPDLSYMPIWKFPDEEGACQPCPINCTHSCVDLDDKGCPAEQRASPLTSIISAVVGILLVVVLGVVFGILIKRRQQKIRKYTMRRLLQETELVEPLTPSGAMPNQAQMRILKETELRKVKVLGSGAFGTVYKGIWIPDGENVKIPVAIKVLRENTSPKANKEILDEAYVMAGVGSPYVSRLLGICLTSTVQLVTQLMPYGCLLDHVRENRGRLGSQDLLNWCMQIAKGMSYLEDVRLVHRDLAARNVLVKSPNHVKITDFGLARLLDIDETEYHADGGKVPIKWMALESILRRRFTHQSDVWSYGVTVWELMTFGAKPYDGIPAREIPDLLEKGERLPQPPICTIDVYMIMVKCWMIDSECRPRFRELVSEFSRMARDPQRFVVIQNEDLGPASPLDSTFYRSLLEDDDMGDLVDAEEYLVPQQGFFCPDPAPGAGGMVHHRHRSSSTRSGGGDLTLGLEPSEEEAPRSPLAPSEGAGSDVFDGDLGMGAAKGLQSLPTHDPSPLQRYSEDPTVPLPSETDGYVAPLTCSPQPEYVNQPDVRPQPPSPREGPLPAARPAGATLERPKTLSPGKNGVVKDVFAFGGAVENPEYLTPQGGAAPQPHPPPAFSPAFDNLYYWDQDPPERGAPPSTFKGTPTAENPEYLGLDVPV

Sequence of Maternal embryonic leucine zipper kinase (Homo sapiens) (Q14680 whole entry, looked up): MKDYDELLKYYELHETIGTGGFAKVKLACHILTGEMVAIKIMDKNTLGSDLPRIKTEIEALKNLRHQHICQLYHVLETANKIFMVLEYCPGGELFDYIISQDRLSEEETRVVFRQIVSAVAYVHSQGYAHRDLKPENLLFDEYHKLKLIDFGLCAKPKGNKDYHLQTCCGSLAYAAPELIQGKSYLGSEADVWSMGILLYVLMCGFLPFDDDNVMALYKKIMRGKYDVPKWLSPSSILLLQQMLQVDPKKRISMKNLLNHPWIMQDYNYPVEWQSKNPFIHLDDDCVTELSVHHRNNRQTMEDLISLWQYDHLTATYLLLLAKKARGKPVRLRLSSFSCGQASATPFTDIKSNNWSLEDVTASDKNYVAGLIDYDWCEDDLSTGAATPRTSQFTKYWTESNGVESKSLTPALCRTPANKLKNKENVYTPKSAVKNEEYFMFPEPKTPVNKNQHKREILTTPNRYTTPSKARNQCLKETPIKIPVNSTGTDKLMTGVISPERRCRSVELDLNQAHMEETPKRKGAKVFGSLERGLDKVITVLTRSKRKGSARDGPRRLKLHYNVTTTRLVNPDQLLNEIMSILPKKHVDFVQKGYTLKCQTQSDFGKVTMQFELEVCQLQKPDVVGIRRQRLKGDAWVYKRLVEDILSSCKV
Sequence of MAP kinase-activated protein kinase 3 (Homo sapiens) (Q16644 whole entry, looked up): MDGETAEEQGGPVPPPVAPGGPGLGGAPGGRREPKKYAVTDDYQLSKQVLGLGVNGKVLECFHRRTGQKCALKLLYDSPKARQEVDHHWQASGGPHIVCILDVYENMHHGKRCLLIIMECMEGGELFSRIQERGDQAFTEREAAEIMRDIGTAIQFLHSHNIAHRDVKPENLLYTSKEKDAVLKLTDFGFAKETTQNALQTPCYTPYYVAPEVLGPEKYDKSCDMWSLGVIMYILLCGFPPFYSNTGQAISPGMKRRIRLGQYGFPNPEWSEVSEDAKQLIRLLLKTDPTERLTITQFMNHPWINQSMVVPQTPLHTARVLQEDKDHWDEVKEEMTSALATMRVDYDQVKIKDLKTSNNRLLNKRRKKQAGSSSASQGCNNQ
Sequence of Serine/threonine-protein kinase PLK1 (Homo sapiens) (P53350 whole entry): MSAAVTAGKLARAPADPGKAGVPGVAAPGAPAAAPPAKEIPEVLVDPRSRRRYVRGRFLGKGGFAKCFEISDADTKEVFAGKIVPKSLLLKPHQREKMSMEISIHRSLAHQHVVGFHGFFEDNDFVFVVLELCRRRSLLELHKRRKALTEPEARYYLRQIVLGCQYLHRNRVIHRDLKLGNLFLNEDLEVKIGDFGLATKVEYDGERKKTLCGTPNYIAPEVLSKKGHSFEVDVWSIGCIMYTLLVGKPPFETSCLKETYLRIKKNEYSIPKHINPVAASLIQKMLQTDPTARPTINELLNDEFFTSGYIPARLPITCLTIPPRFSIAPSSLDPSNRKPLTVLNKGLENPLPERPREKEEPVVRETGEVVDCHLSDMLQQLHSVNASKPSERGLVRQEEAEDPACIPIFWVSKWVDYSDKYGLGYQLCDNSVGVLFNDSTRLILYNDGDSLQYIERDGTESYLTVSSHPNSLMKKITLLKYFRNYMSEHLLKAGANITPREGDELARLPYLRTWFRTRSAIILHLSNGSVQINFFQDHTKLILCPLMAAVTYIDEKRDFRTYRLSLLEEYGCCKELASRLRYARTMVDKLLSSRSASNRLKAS
Sequence of Mitogen-activated protein kinase 1 (Homo sapiens) (P28482 whole entry): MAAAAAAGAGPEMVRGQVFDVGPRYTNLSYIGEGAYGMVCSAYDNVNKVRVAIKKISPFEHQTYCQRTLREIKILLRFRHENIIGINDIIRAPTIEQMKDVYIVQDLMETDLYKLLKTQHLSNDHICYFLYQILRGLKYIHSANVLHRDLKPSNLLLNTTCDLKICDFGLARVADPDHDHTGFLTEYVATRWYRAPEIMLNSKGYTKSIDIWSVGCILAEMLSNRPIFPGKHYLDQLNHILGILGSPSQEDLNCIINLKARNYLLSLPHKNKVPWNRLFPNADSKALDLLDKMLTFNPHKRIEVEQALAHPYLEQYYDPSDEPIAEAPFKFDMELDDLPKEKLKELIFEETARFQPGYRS
Sequence of Activated CDC42 kinase 1 (Homo sapiens) (Q07912 whole entry, looked up): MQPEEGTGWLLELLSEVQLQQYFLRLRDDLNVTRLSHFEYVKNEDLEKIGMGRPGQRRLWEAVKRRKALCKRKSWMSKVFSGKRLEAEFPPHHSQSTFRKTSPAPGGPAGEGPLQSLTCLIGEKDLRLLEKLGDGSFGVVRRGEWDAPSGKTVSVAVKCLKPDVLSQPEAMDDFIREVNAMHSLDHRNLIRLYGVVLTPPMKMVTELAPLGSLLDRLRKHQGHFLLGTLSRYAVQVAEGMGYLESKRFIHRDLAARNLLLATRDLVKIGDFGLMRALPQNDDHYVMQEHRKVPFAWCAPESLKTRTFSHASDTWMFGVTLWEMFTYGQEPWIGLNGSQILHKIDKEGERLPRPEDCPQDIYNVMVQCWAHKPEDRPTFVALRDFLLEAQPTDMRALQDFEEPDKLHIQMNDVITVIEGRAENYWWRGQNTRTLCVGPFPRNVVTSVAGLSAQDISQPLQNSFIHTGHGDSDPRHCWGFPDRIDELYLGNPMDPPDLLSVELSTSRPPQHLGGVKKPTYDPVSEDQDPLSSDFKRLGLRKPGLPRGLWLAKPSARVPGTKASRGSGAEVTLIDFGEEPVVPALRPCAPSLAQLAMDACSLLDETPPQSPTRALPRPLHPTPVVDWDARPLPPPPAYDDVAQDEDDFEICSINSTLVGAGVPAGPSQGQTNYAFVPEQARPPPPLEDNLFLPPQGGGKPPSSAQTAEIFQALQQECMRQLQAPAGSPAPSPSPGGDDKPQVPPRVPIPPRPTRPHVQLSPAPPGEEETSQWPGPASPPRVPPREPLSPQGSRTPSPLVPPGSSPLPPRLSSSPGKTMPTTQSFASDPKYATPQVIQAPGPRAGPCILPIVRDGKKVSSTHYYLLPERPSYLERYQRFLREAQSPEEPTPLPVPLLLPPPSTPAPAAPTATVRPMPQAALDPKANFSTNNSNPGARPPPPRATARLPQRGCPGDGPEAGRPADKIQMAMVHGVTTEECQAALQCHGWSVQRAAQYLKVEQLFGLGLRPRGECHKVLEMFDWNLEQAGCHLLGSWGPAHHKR
Sequence of Serine/threonine-protein kinase MARK2 (Homo sapiens) (Q7KZI7 whole entry): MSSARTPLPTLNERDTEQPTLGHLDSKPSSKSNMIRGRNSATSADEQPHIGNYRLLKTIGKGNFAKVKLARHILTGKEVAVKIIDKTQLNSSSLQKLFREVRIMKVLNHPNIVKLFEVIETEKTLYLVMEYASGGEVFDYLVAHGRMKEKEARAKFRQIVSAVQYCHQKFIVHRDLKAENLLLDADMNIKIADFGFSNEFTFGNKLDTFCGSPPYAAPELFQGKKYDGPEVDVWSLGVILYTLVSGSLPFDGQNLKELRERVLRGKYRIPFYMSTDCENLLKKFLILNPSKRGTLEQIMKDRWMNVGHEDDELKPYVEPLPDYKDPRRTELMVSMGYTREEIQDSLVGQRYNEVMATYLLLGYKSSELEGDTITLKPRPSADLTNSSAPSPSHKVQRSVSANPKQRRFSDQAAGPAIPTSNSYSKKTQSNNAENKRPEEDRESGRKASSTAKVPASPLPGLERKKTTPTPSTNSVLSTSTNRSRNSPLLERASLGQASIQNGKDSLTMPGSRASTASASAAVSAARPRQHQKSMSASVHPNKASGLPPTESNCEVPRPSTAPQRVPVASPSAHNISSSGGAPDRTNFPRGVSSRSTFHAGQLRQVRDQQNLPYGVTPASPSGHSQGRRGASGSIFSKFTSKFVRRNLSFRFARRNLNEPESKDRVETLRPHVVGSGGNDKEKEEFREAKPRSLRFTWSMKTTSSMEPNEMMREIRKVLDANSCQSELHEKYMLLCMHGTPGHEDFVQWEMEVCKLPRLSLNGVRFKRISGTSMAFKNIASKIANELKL

Row | residual activity [1] [%] | residual activity [2] [%] | residual activity [3] [%] | residual activity [4] [%] | residual activity [5] [%] | residual activity [6] [%] | residual activity [7] [%] | residual activity [8] [%] | residual activity [9] [%] | residual activity [10] [%] | residual activity [11] [%] | SMILES
1 | 36 | 67 | 147 | 88 | 112 | 72 | 86 | 78 | 34 | 106 | 112 | COc1cc2c(Oc3ccc(-c4nc5ccccc5s4)cc3)ncnc2cc1OCCCN1CCCC1
2 | 21 | 41 | 123 | 100 | 106 | 67 | 94 | 85 | 111 | 76 | 103 | COc1cc2c(Oc3ccc(-c4nc5ccccc5s4)cc3)ncnc2cc1OCCCN1CCN(C)CC1
3 | 20 | 42 | 149 | 97 | 108 | 60 | 95 | 96 | 60 | 90 | 97 | COc1cc2c(Oc3ccc(-c4nc5ccccc5s4)cc3F)ncnc2cc1OCCCN1CCN(C)CC1
